Laboratory results: BigSolDB 2.1

CC(=O)[O-].C[N+](C)(C)CCO
Settings	solubility (mole fraction)
in ethanol, 259.8 K	0.049
in ethanol, 261.8 K	0.067
in ethanol, 263.9 K	0.09
in ethanol, 265.7 K	0.112
in ethanol, 267.1 K	0.13
in ethanol, 267.8 K	0.143
in ethanol, 271.7 K	0.174
in ethanol, 272.1 K	0.184
in ethanol, 276.6 K	0.228
in ethanol, 278.5 K	0.252
in ethanol, 282.8 K	0.29
in ethanol, 286.1 K	0.319
in n-butanol, 268.2 K	0.023
in n-butanol, 273 K	0.048
in n-butanol, 276.9 K	0.074
in n-butanol, 279.9 K	0.102
in n-butanol, 281.8 K	0.136
in n-butanol, 284.2 K	0.172
in n-butanol, 287.7 K	0.209
in n-butanol, 290.4 K	0.233
in n-butanol, 295.4 K	0.293
in n-butanol, 297.7 K	0.317
in n-propanol, 263.8 K	0.0191
in n-propanol, 266.9 K	0.0394
in n-propanol, 270.3 K	0.062
in n-propanol, 273.1 K	0.0844
in n-propanol, 274.1 K	0.11
in n-propanol, 276 K	0.144
in n-propanol, 277.7 K	0.174
in n-propanol, 279.9 K	0.211
in n-propanol, 280.9 K	0.234
in n-propanol, 282.7 K	0.269
in n-propanol, 285.2 K	0.316

C[N+](C)(C)CCOC(=O)CCCC(=O)O.[Cl-]
Settings	solubility (mole fraction)
in ethanol, 300.2 K	0.006
in ethanol, 310.6 K	0.008
in ethanol, 316.8 K	0.01
in ethanol, 318.5 K	0.012
in ethanol, 322.1 K	0.017
in ethanol, 325.4 K	0.023
in ethanol, 333.2 K	0.033
in ethanol, 335.8 K	0.039
in ethanol, 338.1 K	0.043
in ethanol, 339.4 K	0.055
in n-butanol, 304.8 K	0.001
in n-butanol, 318.7 K	0.0019
in n-butanol, 323.8 K	0.0022
in n-butanol, 327.5 K	0.0025
in n-butanol, 330.4 K	0.0029
in n-butanol, 335.1 K	0.0035
in n-butanol, 341 K	0.004
in n-propanol, 305.4 K	0.002
in n-propanol, 306.6 K	0.003
in n-propanol, 309.4 K	0.003
in n-propanol, 315.5 K	0.004
in n-propanol, 319.9 K	0.005
in n-propanol, 324.6 K	0.008
in n-propanol, 331.2 K	0.011
in n-propanol, 335.1 K	0.013
in n-propanol, 338.5 K	0.017

C[N+](C)(C)CCOC(=O)CCC(=O)O.[Cl-]
Settings	solubility (mole fraction)
in ethanol, 299 K	0.008
in ethanol, 300.8 K	0.01
in ethanol, 305.5 K	0.015
in ethanol, 310.9 K	0.02
in ethanol, 313.1 K	0.026
in ethanol, 315.6 K	0.028
in ethanol, 320.5 K	0.038
in ethanol, 322 K	0.044
in n-butanol, 300.4 K	0.003
in n-butanol, 308.8 K	0.004
in n-butanol, 312.7 K	0.006
in n-butanol, 318.8 K	0.008
in n-butanol, 322.4 K	0.009
in n-butanol, 326.4 K	0.012
in n-butanol, 329.8 K	0.014
in n-butanol, 338.8 K	0.016
in n-propanol, 299.2 K	0.006
in n-propanol, 305.5 K	0.008
in n-propanol, 310.9 K	0.01
in n-propanol, 318.7 K	0.013
in n-propanol, 325.2 K	0.02
in n-propanol, 328.9 K	0.025
in n-propanol, 333.2 K	0.031
in n-propanol, 336.1 K	0.039

C[N+](C)(C)CCO.[Cl-]
Settings	solubility (mole fraction)
in ethanol, 269.8 K	0.017
in ethanol, 276.4 K	0.027
in ethanol, 281.8 K	0.038
in ethanol, 287.2 K	0.054
in ethanol, 290.5 K	0.066
in ethanol, 292.4 K	0.072
in ethanol, 296.7 K	0.082
in ethanol, 300.5 K	0.089
in ethanol, 305.7 K	0.098
in ethanol, 308.4 K	0.109
in ethanol, 315.3 K	0.125
in ethanol, 321.6 K	0.138
in n-butanol, 314.6 K	0.031
in n-butanol, 321.2 K	0.049
in n-butanol, 328.6 K	0.068
in n-butanol, 340.8 K	0.086
in n-butanol, 346.4 K	0.109
in n-butanol, 349.4 K	0.131
in n-butanol, 352.9 K	0.147
in n-propanol, 288.9 K	0.015
in n-propanol, 295.7 K	0.023
in n-propanol, 302.3 K	0.039
in n-propanol, 308.7 K	0.05
in n-propanol, 309.6 K	0.059
in n-propanol, 316.5 K	0.073
in n-propanol, 323.2 K	0.086
in n-propanol, 330.7 K	0.108
in n-propanol, 335.3 K	0.129
in n-propanol, 338 K	0.153
